Data from patent US5688787A, “Substituted β-lactam compounds useful as hypochlesterolemic agents and processes for the preparation thereof” (priority 1996, dated 1997).
Read-outs that look alike come from different tables or passages of the source.

Tested on: Hyperlipidemic Hamster
Assay: In Vivo Assay of Hypolipidemic Agents Using the Hyperlipidemic Hamster
Conditions: for change in vivo at 50 mg/kg / change in vivo at 3 mg/kg / change in vivo at 10 mg/kg / change in vivo at 30 mg/kg / change in vivo at 25 mg/kg: Mesocricetus auratus, po, 168 h; for change in vivo at 3 mg/kg: 3 mg/kg once daily oral; for change in vivo at 10 mg/kg: 10 mg/kg once daily oral; for change in vivo at 30 mg/kg: 30 mg/kg once daily oral; for change in vivo at 25 mg/kg: 25 mg/kg once daily oral
Description: In Vivo Assay of Hypolipidemic Agents Using the Hyperlipidemic Hamster
Hamsters are separated into groups of six and given a controlled cholesterol diet (Purina Chow #5001 containing 0.5% cholesterol) for seven days. Diet consumption is monitored to determine dietary cholesterol exposure in the face of test compounds. The animals are dosed with the test compound once daily beginning with the initiation of diet. Dosing is by oral gavage of 0.2mL of corn oil alone (control group) or solution (or suspension) of test compound in corn oil. All animals roodbund or in poor physical condition are euthanized. After seven days, the animals are anesthetized by IM injection of ketamine and sacrificed by decapitation. Blood is collected into vacutainer tubes containing EDTA for plasma lipid analysis and the liver excised for tissue lipid analysis. Data is reported as percent reduction of lipid versus control.
Using the test procedures described above, the following in vitro and in vivo data were obtained for the preferred compounds, which are referred to in the following table by the corresponding example numbers. For the in vitro ACAT data, negative percent inhibition denotes apparent stimulation,while positive numbers denote inhibition. For the in vivo results, data is reported as percent change versus control, therefore, negative numbers indicate a positive lipid-lowering effect.

[1] = 50 mg/kg once daily oral, 7 days, percent change versus control, negative = lowering, read-out: % Reduction (in vivo) Cholest. Esters
[2] = 50 mg/kg once daily oral, 7 days, percent change versus control, negative = lowering, read-out: % Reduction (in vivo) Serum Cholest.
[3] = 7 days, percent change versus control, negative = lowering, read-out: % Reduction (in vivo) Cholest. Esters
[4] = 7 days, percent change versus control, negative = lowering, read-out: % Reduction (in vivo) Serum Cholest.
[5] = 50 mg/kg once daily oral, 7 days, percent change versus control, negative = lowering

Compound	change in vivo at 50 mg/kg [1] [%]	change in vivo at 50 mg/kg [2] [%]	other results
COc1ccc(N2C(=O)[C@@H](CCCc3ccccc3)[C@@H]2c2cc3ccccc3o2)cc1 (relative stereo) [Example 1CA]	0	-12	–
COc1ccc([C@H]2[C@@H](CCCc3ccccc3)C(=O)N2c2ccc(O[Si](C)(C)C(C)(C)C)cc2)cc1 (relative stereo) [Example 1CB]	–	–	change in vivo at 50 mg/kg (read-out: % Reduction (in vivo) Cholest. Esters): 0%; change in vivo at 50 mg/kg (read-out: % Reduction (in vivo) Serum Cholest.): 0%
COc1ccc([C@H]2[C@@H](CCOc3ccc(F)cc3)C(=O)N2c2ccccc2)cc1 (relative stereo) [Example 1CH]	-95	-49	change in vivo at 3 mg/kg [3]: -80%; change in vivo at 3 mg/kg [4]: -24%; change in vivo at 10 mg/kg [3]: -90%; change in vivo at 10 mg/kg [4]: -41%
COc1ccc([C@@H]2[C@H](N(C)C)C(=O)N2c2ccccc2)cc1 (relative stereo) [Example 1CJ]	0	0	–
COc1ccc(N2C(=O)[C@@H](CCCc3ccccc3)[C@@H]2c2ccc(SC)cc2)cc1 (relative stereo) [Example 1CM]	0	0	–
COc1ccc([C@@H]2[C@@H](CCOc3ccc(F)cc3)C(=O)N2c2ccc(OC)cc2)cc1 (relative stereo) [Example 5AA]	-93	-53	–
COc1ccc([C@@H]2[C@@H](CCCc3ccccc3)C(=O)N2c2ccc(F)cc2)cc1 (relative stereo) [Example 5D]	-95	-38	change in vivo at 10 mg/kg [3]: -77%; change in vivo at 10 mg/kg [4]: -24%; change in vivo at 30 mg/kg [3]: -94%; change in vivo at 30 mg/kg [4]: -41%
COc1ccc([C@@H]2[C@@H](CCCc3ccccc3)C(=O)N2c2cccc(OC)c2)cc1 (relative stereo) [Example 5E]	-91	-38	–
COc1ccc([C@@H]2[C@@H](CCCc3ccccc3)C(=O)N2c2ccc(Cl)cc2)cc1 (relative stereo) [Example 5G]	-93	-44	–
CCOc1ccc(N2C(=O)[C@H](CCCc3ccccc3)[C@H]2c2ccc(OC)cc2)cc1 (relative stereo) [Example 5H]	-96	-57	–
COc1ccc([C@@H]2[C@@H](CCCc3ccccc3)C(=O)N2c2ccc(SC)cc2)cc1 (relative stereo) [Example 5I]	-70	-26	–
COc1ccc([C@@H]2[C@@H](CCCc3ccccc3)C(=O)N2c2ccc(C)cc2)cc1 (relative stereo) [Example 5J]	-90	-38	–
COc1ccc(N2C(=O)[C@H](CCCc3ccccc3)[C@H]2c2ccc(OCc3ccccc3)cc2)cc1 (relative stereo) [Example 5T]	-48	-15	–
C=CCOc1ccc([C@@H]2[C@@H](CCCc3ccccc3)C(=O)N2c2ccc(OC)cc2)cc1 (relative stereo) [Example 5U]	-86	-48	–
COc1ccc(N2C(=O)[C@H](CCCc3ccccc3)[C@H]2c2ccc(Oc3ccccc3)cc2)cc1 (relative stereo) [Example 5V]	-77	-37	–
COc1ccc([C@@H]2[C@@H](CCCc3ccccc3)C(=O)N2c2ccc(OC)cc2)cc1 (relative stereo) [Example 5W]	–	–	% Reduction (in vivo) Cholest. Esters [5]: -19%; % Reduction (in vivo) Serum Cholest. [5]: 0%
COc1ccc([C@@H]2[C@@H](CCCCCCc3ccccc3)C(=O)N2c2ccc(OC)cc2)cc1 (relative stereo) [Example 5Y]	0	-29	–
COc1ccc([C@@H]2[C@@H](OCCc3ccccc3)C(=O)N2c2ccc(OC)cc2)cc1 (relative stereo) [Example 5Z]	0	-16	–
COc1ccc([C@@H]2[C@@H](CCCc3ccccc3)C(=O)N2c2ccc(OC)cc2)cc1 (relative stereo) [Example 5]	–	–	% Reduction (in vivo) Cholest. Esters [5]: -77.5%; % Reduction (in vivo) Serum Cholest. [5]: -29%; change in vivo at 10 mg/kg [3]: -60%; change in vivo at 10 mg/kg [4]: -21%; change in vivo at 25 mg/kg [3]: -72%; change in vivo at 25 mg/kg [4]: -20%
